These results are taken from patent US20190343190A1, “MATERIALS INCLUDING POLYMERIC FIBERS INCORPORATING MICROCAPSULES OR NANOCAPSULES INCLUDING AN ESSENTIAL OIL” (President and Fellows of Harvard College, priority 2016, published 2019).

One data set has as its target leucine dehydrogenase (Bacillus subtilis, UniProt P54531). The settings on record: cited from earlier work.
Data set [1] in a line: Polystyrene-water partition of citral. In kind it is physicochemical. The text has this: The polymer matrix should not dissolve through bulk degradation or boundary degradation as it is very inert and unreactive, plus divinylbenzene provides additional stability. […] This is extremely high: its predicts the existence of approximately 5000 molecules of citral within the nanocapsule core or polystyrene shell for every molecule in surrounding water. This dictates a fixed equilibrium between concentration in polystyrene nanocapsule Cp and surrounding water Cw given by the equation: Cp/Cw=10^3.7=5011

leucine dehydrogenase, sequence (P54531 whole entry): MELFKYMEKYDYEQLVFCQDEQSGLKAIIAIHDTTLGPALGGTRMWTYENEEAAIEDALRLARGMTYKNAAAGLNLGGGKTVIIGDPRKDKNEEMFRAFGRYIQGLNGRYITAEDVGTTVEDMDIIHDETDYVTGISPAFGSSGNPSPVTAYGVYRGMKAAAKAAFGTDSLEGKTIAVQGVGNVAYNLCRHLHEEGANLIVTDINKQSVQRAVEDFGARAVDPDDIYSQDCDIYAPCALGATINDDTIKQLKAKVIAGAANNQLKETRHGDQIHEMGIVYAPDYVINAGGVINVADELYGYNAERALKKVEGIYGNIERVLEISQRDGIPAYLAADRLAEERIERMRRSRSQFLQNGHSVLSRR

Consider `CC(C)=CCCC(C)=CC=O` [citral], for which the “Binding affinity compared with branched chain amino acids” value at leucine dehydrogenase is “higher binding affinity”. Moreover, the “Molecules within the nanocapsule core or polystyrene shell for every molecule in surrounding water” value in data set [1] is listed as “approximately 5000”.
